The subject of the data set is human whole-blood (erythrocytes). The settings on record: both. As for the experimental part: In-vitro evaluation of the hemolytic influence of the preparations of this invention on human whole-blood was determined as a further guide to selecting formulations with a low tendancy to produce irritation around the site of injection. The hemolytic potential of the formulation on blood was evaluated by the assay of erythrocyte cytoplasmic marker enzyme, lactate dehydrogenase (LDH). Measurement of erythrocyte cytoplasmic marker enzyme. LDH, which escapes from the leaky or ruptured erythrocytes into tie plasma compartment of the blood, is one of the commonly used quantitative assays described in literature for evaluation of hemolytic potential of injectable formulations (Stenz and Bauer, 1996). The blood was obtained from male or female Caucasian human volunteers of 18 to 65 years age and stabilized with sodium heparin. The test formulation was mixed with an equal volume of human whole blood and incubated at 37° C. for about 1 hour. The mixture was then held at ambient temperature for 30 min. followed by centrifugation at 1500 rpm for 10 min. The level of LDH in the supernatant was determined by a standard procedure known to the scientists skilled in this art.

Experimental findings from patent publication US7041705B2, “Injectable aqueous dispersions of propofol” (Jagotec AG, priority 1998, dated 2006) are described below.

Counter-ions that a name gives are not always drawn. Like-named read-outs stand apart in the source and are kept apart here.

For `CCCCc1oc2ccccc2c1C(=O)c1cc(I)c(OCCN(CC)CC)c(I)c1` [Amiodarone hydrochloride], the LDH is, setting by setting: (1.8 mg/mL) 673 IU/L; (50 mg/mL) 8190 IU/L.
